# Measurements from paper PMC9061857, “A fluorogenic probe for granzyme B enables in-biopsy evaluation and screening of response to anticancer immunotherapies” (Nature Communications, 2022).
# *1 amine or outer side, *2 acyl side, *3 side chain or, on linkers, in order; H or OH if unused. Primed or numbered codes have the meaning given here. The star is where a group is joined. BODIPY(FL) = CC1=CC(C)=[N+]2C1=Cc1ccc(CCC(=O)*)n1[B-]2(F)F; Ethylenediamine = C(CN[*:2])N[*:1]; AMC = Cc1cc(=O)oc2cc(N*)ccc12; Dabcyl′ = quencher
# B1: Ac-IEPD-AMC (peptide)
# peptide: Ac-IEPD-{AMC}
# SMILES: CC[C@H](C)[C@H](NC(C)=O)C(=O)N[C@@H](CCC(=O)O)C(=O)N1CCC[C@H]1C(=O)N[C@@H](CC(=O)O)C(=O)Nc1ccc2c(C)cc(=O)oc2c1
# What was measured:
# GzmB = details: 4-mer, fluorogenic dye; ref [39]; cited from earlier work
# Source text: Table 1 Summary of fluorescent peptide-based probes for GzmB. | column: Kcat (s^−1); KM (µM); Kcat/KM (M^−1 s^−1)
# human GzmB (hGzmB) = biological target: T1, human GzmB (hGzmB) (Homo sapiens, UniProt P10144); test: HPLC conversion of fluorogenic peptides by hGzmB; format: biochemical; details: TRIS buffer, 37 °C
# T1 construct: For active GzmB vs pro-GzmB, p < 0.0001
# T1 sequence (P10144 21-247): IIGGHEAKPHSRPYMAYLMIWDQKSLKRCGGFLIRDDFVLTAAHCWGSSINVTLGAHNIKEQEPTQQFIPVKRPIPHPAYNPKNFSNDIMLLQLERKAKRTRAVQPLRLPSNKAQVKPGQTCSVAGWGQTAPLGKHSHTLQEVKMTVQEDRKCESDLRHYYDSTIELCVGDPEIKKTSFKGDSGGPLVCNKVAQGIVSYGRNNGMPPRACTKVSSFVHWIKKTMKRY
# Method: (§1) Supplementary Figure 1. Reactivity of fluorogenic substrates against human GzmB and limits of detection. a) Reaction conversion rates (by HPLC-UV detection at 350 nm) for Ac-IEPD-AMC (50 μM) in TRIS buffer (see Methods) at 37 °C containing different concentrations of hGzmB. Data presented as mean values±SEM (n=3 independent biological experiments). b) Reaction conversion rates (by HPLC-UV detection at 500 nm) for the tetrapeptide T1 (25 μM) in TRIS buffer at 37 °C containing different concentrations of hGzmB. Data presented as mean values±SEM (3 independent biological experiments).
# (§2) Source data provided as a Source Data file.
# (§3) (1 picture or pasted object on this page, not shown here)
# Supplementary Table 1. Chemical structures and reactivity of FRET-based tetrapeptides against human GzmB.
# Code Structure Linker Quencher HPLC conversion HPLC conversion […]
# Supplementary Table 2. Sequences and reactivity of FRET-based hexapeptides against […]
# Code Peptide sequence HPLC conversion
# H1 Ile-Glu-Pro-Asp-Ala-Gly 75%
# H2 Ile-Glu-Pro-Asp-Ser-Gly 80%
# H3 Ile-Glu-Pro-Asp-Ser-Leu 80%
# H4 Ile-Glu-Pro-Asp-Trp-Leu 82%
# H6 Ile-Glu-Pro-Asp-Trp-Arg 40%
# H7 Ile-Glu-Pro-Asp-Arg-Leu 60%
# H5m Ile-Glu-Phe-Asp-Ala-Leu 70%
# hGzmB = test: Limit of detection of hGzmB by probe fluorescence; format: biochemical, human; details: limit of detection of hGzmB (Fig. S1)
# Method: as §1, §2, §3
# Supplementary Figure 4. Comparative enzyme selectivity and limit of detection for […]
# Ac-IEPD-AMC (all at 25 μM) after incubation for 90 min at 37 °C with hGzmB (light gray bars), human caspase-3 (dark gray bars) and hGzmA (white bars) (all enzymes used at 20 nM). Data presented as mean values±SEM (n=3). Excitation wavelengths: 450 nm (for […]
# 450 nm (for Ac-IEPD-AMC). b) Limit of detection of hGzmB by fluorescence emission […]
# presented as mean values±SD (2 independent experiments with 3 technical replicates).
# human granzyme B (human) [1] = biological target: human granzyme B (human) (UniProt P10144)
# Chain of human granzyme B (human) (P10144 21-247): as above
# human granzyme B (human) [2] = biological target: human granzyme B (human) (UniProt P10144); remark: listed apart in the source
# human granzyme B (human) [3] = biological target: human granzyme B (human) (UniProt P10144); remark: listed apart in the source
# human granzyme B (human) [4] = biological target: human granzyme B (human) (UniProt P10144); remark: listed apart in the source
# [5] = probe 25 μM (Ac-IEPD-AMC 50 μM), HPLC-UV
molecule,measurement,setting,value
Ac-IEPD-{AMC},Kcat/KM,GzmB,3300 M⁻¹ s⁻¹
same,Km,GzmB,160 µM
same,kcat,GzmB,0.5 s⁻¹
same,HPLC conversion rate,"human GzmB (hGzmB); 2h-20 nM hGzmB, Data 1",0.5%
same,HPLC conversion rate,"human GzmB (hGzmB); 2h-20 nM hGzmB, Data 2",0.5%
same,HPLC conversion rate,"human GzmB (hGzmB); 2h-20 nM hGzmB, Data 3",0.5%
same,HPLC conversion rate,"human GzmB (hGzmB); 2h-50 nM hGzmB, Data 1",2.5%
same,HPLC conversion rate,"human GzmB (hGzmB); 2h-50 nM hGzmB, Data 2",2%
same,HPLC conversion rate,"human GzmB (hGzmB); 2h-50 nM hGzmB, Data 3",2.5%
same,HPLC conversion rate,"human GzmB (hGzmB); 2h-100 nM hGzmB, Data 1",7.5%
same,HPLC conversion rate,"human GzmB (hGzmB); 2h-100 nM hGzmB, Data 2",5%
same,HPLC conversion rate,"human GzmB (hGzmB); 2h-100 nM hGzmB, Data 3",6.5%
same,HPLC conversion rate,"human GzmB (hGzmB); 6h-20 nM hGzmB, Data 1",0.5%
same,HPLC conversion rate,"human GzmB (hGzmB); 6h-20 nM hGzmB, Data 2",0.5%
same,HPLC conversion rate,"human GzmB (hGzmB); 6h-20 nM hGzmB, Data 3",0.75%
same,HPLC conversion rate,"human GzmB (hGzmB); 6h-50 nM hGzmB, Data 1",3%
same,HPLC conversion rate,"human GzmB (hGzmB); 6h-50 nM hGzmB, Data 2",2%
same,HPLC conversion rate,"human GzmB (hGzmB); 6h-50 nM hGzmB, Data 3",2%
same,HPLC conversion rate,"human GzmB (hGzmB); 6h-100 nM hGzmB, Data 1",8.5%
same,HPLC conversion rate,"human GzmB (hGzmB); 6h-100 nM hGzmB, Data 2",7%
same,HPLC conversion rate,"human GzmB (hGzmB); 6h-100 nM hGzmB, Data 3",9%
same,HPLC conversion rate,"human GzmB (hGzmB); 24h-20 nM hGzmB, Data 1",1.5%
same,HPLC conversion rate,"human GzmB (hGzmB); 24h-20 nM hGzmB, Data 2",1%
same,HPLC conversion rate,"human GzmB (hGzmB); 24h-20 nM hGzmB, Data 3",1.5%
same,HPLC conversion rate,"human GzmB (hGzmB); 24h-50 nM hGzmB, Data 1",4%
same,HPLC conversion rate,"human GzmB (hGzmB); 24h-50 nM hGzmB, Data 2",2.5%
same,HPLC conversion rate,"human GzmB (hGzmB); 24h-50 nM hGzmB, Data 3",3.5%
same,HPLC conversion rate,"human GzmB (hGzmB); 24h-100 nM hGzmB, Data 1",13%
same,HPLC conversion rate,"human GzmB (hGzmB); 24h-100 nM hGzmB, Data 2",9%
same,HPLC conversion rate,"human GzmB (hGzmB); 24h-100 nM hGzmB, Data 3",12.5%
same,"HPLC conversion (20 nM hGzmB, 2 h)",human GzmB (hGzmB); [5],< 1%
same,"HPLC conversion (100 nM hGzmB, 24 h)",human GzmB (hGzmB); [5],10%
same,LoD,hGzmB,25 nM
{BODIPY(FL)}-IEPD-{Ethylenediamine-Dabcyl′} [tetrapeptide T1],enzymatic cleavage of T1 by hGzmB (20 nM for 2 h: <5%; 100 nM for 24 h: 14%),human granzyme B (human) [1],14%
same,KM of cleavage by GzmB,human granzyme B (human) [2],30.8 µM
same,Kcat of cleavage by GzmB,human granzyme B (human) [2],2.3 s⁻¹
same,Kcat/KM of cleavage by GzmB,human granzyme B (human) [2],59000 M⁻¹ s⁻¹
{BODIPY(FL)}-IEPDWR-{Dabcyl′} [hexapeptide H6],conversion (cleavage) by hGzmB,human granzyme B (human) [3],40%
same,"signal-to-background ratio of fluorescence emission (peptide 25 μM, hGzmB 20 nM)",human granzyme B (human) [4],12 fold
B1,enzymatic cleavage of Ac-IEPD-AMC by hGzmB (20 nM for 2 h: <1%; 100 nM for 24 h: 10%),human granzyme B (human) [1],10%
{BODIPY(FL)}-IEPDAL-{Dabcyl′} [probe H5],"signal-to-background ratio of fluorescence emission (peptide 25 μM, hGzmB 20 nM)",human granzyme B (human) [4],153 fold
same,"t50: time to reach 50-fold fluorescence increase (peptide 25 μM, hGzmB 20 nM)",human granzyme B (human) [4],7 min
same,"KM of cleavage by hGzmB (20 nM), Michaelis-Menten fit",human granzyme B (human) [2],9.6 µM
same,"Kcat of cleavage by hGzmB (20 nM), Michaelis-Menten fit",human granzyme B (human) [2],117 s⁻¹
same,"Kcat/KM of cleavage by hGzmB (20 nM), Michaelis-Menten fit",human granzyme B (human) [2],1.2e+07 M⁻¹ s⁻¹
